Source: ChEMBL document CHEMBL1154296, “Potent inhibitors of beta-tryptase and human leukocyte elastase based on the MCoTI-II scaffold” (J Med Chem, 2009)
Starred links: 1 amine or outer side, 2 acyl side, 3 side chain; linkers in the order of their positions; H or OH if unused. Positions of bridges follow the written chain, without caps; N, C: chain ends. Non-standard residues stand in square brackets, D forms with d. Residues, ends and D or L forms follow the SMILES beside them. X2 = N=C(N)NCCC[C@@H](C(=O)[C@H](CCC(N)=O)N[*:1])C(=O)[*:2]; X3 = O=C(NC(=O)[*:2])[C@H](CO)N[*:1]

Key:
[1] = Inhibition of tryptase by substrate hydrolysis based fluorescence assay
Neutrophil elastase = target: T1, Neutrophil elastase (Homo sapiens, UniProt P08246); experiment: Inhibition of human leukocyte elastase by substrate hydrolysis based fluorescence assay; conditions: read-out: Ki
T1 sequence (P08246 whole entry): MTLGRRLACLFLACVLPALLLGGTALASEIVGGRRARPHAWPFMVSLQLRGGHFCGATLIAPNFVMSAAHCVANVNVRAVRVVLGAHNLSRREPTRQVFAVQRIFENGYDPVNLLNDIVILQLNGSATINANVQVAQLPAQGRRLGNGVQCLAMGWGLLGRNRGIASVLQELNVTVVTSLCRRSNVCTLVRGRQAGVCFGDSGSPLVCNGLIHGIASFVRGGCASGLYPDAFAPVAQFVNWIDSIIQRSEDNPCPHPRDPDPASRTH

[2] = Inhibition of trypsin by substrate hydrolysis based fluorescence assay

CC[C@H](C)[C@@H]1NC(=O)[C@@H]2CSSC[C@@H]3NC(=O)[C@H](C(C)C)NC(=O)CNC(=O)CNC(=O)[C@H](CC(=O)O)NC(=O)[C@H](CO)NC(=O)CNC(=O)[C@H](CO)NC(=O)CNC(=O)[C@@H]4CSSC[C@H](NC(=O)[C@H](CC(=O)O)NC(=O)[C@H](CO)NC(=O)[C@H](CC(=O)O)NC(=O)[C@H](CCCNC(=N)N)NC(=O)[C@H](CCCNC(=N)N)NC(=O)[C@H](CSSC[C@H](NC1=O)C(=O)N[C@@H](CCCNC(=N)N)C(=O)NCC(=O)N[C@@H](CC(N)=O)C(=O)NCC(=O)N[C@@H](Cc1ccc(O)cc1)C(=O)N4)NC(=O)[C@@H](CCCNC(=N)N)C(=O)[C@H](CCC(N)=O)NC(=O)[C@H](CC(C)C)NC(=O)[C@@H]1CCCN1C(=O)[C@@H](C(C)C)NC(=O)[C@H](C)NC3=O)C(=O)N1CCC[C@H]1C(=O)NCC(=O)N[C@@H](C)C(=O)N2
Ki [1]: > 50000 nM | Ki (Neutrophil elastase): 500 nM

CC[C@H](C)[C@@H]1NC(=O)[C@H](CCCCN)NC(=O)[C@@H]2CCCN2C(=O)[C@@H](NC(=O)[C@@H](N)C(C)C)CSSC[C@@H]2NC(=O)CNC(=O)[C@H](C)NC(=O)[C@H](CC(C)C)NC(=O)[C@@H]3CSSC[C@@H](C(=O)NCC(=O)N[C@@H](CO)C(=O)NCC(=O)O)NC(=O)[C@H](Cc4ccc(O)cc4)NC(=O)CNC(=O)[C@H](CC(N)=O)NC(=O)CNC(=O)[C@H](CCCNC(=N)N)NC(=O)[C@H](CSSC[C@H](NC(=O)[C@@H](CCCNC(=N)N)C(=O)[C@H](CCC(N)=O)NC(=O)[C@H](CC(C)C)NC1=O)C(=O)N[C@@H](CCCNC(=N)N)C(=O)N[C@@H](CCCNC(=N)N)C(=O)N[C@@H](CC(=O)O)C(=O)N[C@@H](CO)C(=O)N[C@@H](CC(=O)O)C(=O)N3)NC(=O)[C@H](CC(C)C)NC2=O (H-VCPKIL[X2]CRRDSDCLAGCLCRGNGYCGSG-OH; disulfide 2-18, 8-20, 14-26)
Ki [1]: 110 nM | Ki [2]: 99 nM

CC[C@H](C)[C@@H]1NC(=O)[C@H](C)NC(=O)[C@@H]2CCCN2C(=O)[C@@H]2CSSC[C@@H]3NC(=O)[C@H](C)NC(=O)CNC(=O)[C@@H]4CCCN4C(=O)[C@@H]4CSSC[C@H](NC(=O)[C@H](Cc5ccc(O)cc5)NC(=O)CNC(=O)[C@H](CC(N)=O)NC(=O)CNC(=O)[C@H](CCCNC(=N)N)NC(=O)[C@H](CSSC[C@H](NC(=O)[C@@H](CCCNC(=N)N)C(=O)[C@H](CCC(N)=O)NC(=O)[C@H](CC(C)C)NC1=O)C(=O)N[C@@H](CCCNC(=N)N)C(=O)N[C@@H](CCCNC(=N)N)C(=O)N[C@@H](CC(=O)O)C(=O)N[C@@H](CO)C(=O)N[C@@H](CC(=O)O)C(=O)N4)NC(=O)[C@H]([C@@H](C)CC)NC3=O)C(=O)NCC(=O)N[C@@H](CO)C(=O)NCC(=O)N[C@@H](CO)C(=O)N[C@@H](CC(=O)O)C(=O)NCC(=O)NCC(=O)N[C@@H](C(C)C)C(=O)N2 (cyclo(ACICRGNGYCGSGSDGGVCPAIL[X2]CRRDSDCPG); disulfide 2-19, 4-25, 10-31)
Ki [1]: > 50000 nM | Ki (Neutrophil elastase): 32 nM | Ki [2]: > 0.109 nM

CC[C@H](C)[C@@H]1NC(=O)[C@@H]2CSSC[C@@H]3NC(=O)[C@H](C(C)C)NC(=O)CNC(=O)CNC(=O)[C@H](CC(=O)O)NC(=O)[C@H](CO)NC(=O)CNC(=O)[C@H](CO)NC(=O)CNC(=O)[C@@H]4CSSC[C@H](NC(=O)[C@H](CC(=O)O)NC(=O)[C@H](CO)NC(=O)[C@H](CC(=O)O)NC(=O)[C@H](CCCNC(=N)N)NC(=O)[C@H](CCCNC(=N)N)NC(=O)[C@H](CSSC[C@H](NC1=O)C(=O)N[C@@H](CCCNC(=N)N)C(=O)NCC(=O)N[C@@H](CC(N)=O)C(=O)NCC(=O)N[C@@H](Cc1ccc(O)cc1)C(=O)N4)NC(=O)[C@@H](CCCNC(=N)N)C(=O)[C@H](CCC(N)=O)NC(=O)[C@H](CC(C)C)NC(=O)[C@@H]1CCCN1C(=O)[C@H](C(C)C)NC(=O)[C@@H]1CCCN1C3=O)C(=O)N1CCC[C@H]1C(=O)NCC(=O)N[C@@H](C)C(=O)N2 (cyclo(ACICRGNGYCGSGSDGGVCPVPL[X2]CRRDSDCPG); disulfide 2-19, 4-25, 10-31)
Ki [1]: > 50000 nM | Ki (Neutrophil elastase): 520 nM

CC[C@H](C)[C@@H]1NC(=O)[C@@H]2CSSC[C@@H]3NC(=O)[C@H](C(C)C)NC(=O)CNC(=O)NC(=O)[C@H](CO)NC(=O)CNC(=O)[C@H](CO)NC(=O)CNC(=O)[C@@H]4CSSC[C@H](NC(=O)[C@H](CC(=O)O)NC(=O)[C@H](CO)NC(=O)[C@H](CC(=O)O)NC(=O)[C@H](CCCNC(=N)N)NC(=O)[C@H](CCCNC(=N)N)NC(=O)[C@H](CSSC[C@H](NC1=O)C(=O)N[C@@H](CCCNC(=N)N)C(=O)NCC(=O)N[C@@H](CC(N)=O)C(=O)NCC(=O)N[C@@H](Cc1ccc(O)cc1)C(=O)N4)NC(=O)[C@@H](CCCNC(=N)N)C(=O)[C@H](CCC(N)=O)NC(=O)[C@H](CC(C)C)NC(=O)[C@H]([C@@H](C)CC)NC(=O)[C@H](CCCCN)NC(=O)[C@@H]1CCCN1C3=O)C(=O)N1CCC[C@H]1C(=O)NCC(=O)N[C@@H](C)C(=O)N2 (cyclo(ACICRGNGYCGSG[X3]GVCPKIL[X2]CRRDSDCPG); disulfide 2-17, 4-23, 10-29)
Ki [1]: 600 nM | Ki [2]: 4.3 nM

CC[C@H](C)[C@@H]1NC(=O)[C@H](CCCCN)NC(=O)[C@@H]2CCCN2C(=O)[C@@H]2CSSC[C@@H]3NC(=O)CNC(=O)[C@H](C)NC(=O)[C@H](CC(C)C)NC(=O)[C@@H]4CSSC[C@H](NC(=O)[C@H](Cc5ccc(O)cc5)NC(=O)CNC(=O)[C@H](CC(N)=O)NC(=O)CNC(=O)[C@H](CCCNC(=N)N)NC(=O)[C@H](CSSC[C@H](NC(=O)[C@@H](CCCNC(=N)N)C(=O)[C@H](CCC(N)=O)NC(=O)[C@H](CC(C)C)NC1=O)C(=O)N[C@@H](CCCNC(=N)N)C(=O)N[C@@H](CCCNC(=N)N)C(=O)N[C@@H](CC(=O)O)C(=O)N[C@@H](CO)C(=O)N[C@@H](CC(=O)O)C(=O)N4)NC(=O)[C@H](CC(C)C)NC3=O)C(=O)NCC(=O)N[C@@H](CO)C(=O)NCC(=O)N[C@@H](C(C)C)C(=O)N2 (cyclo(AGCLCRGNGYCGSGVCPKIL[X2]CRRDSDCL); disulfide 3-16, 5-22, 11-28)
Ki [1]: 33 nM | Ki [2]: 48 nM

CC[C@H](C)[C@@H]1NC(=O)[C@H](CCCNC(=N)N)NC(=O)[C@@H]2CCCN2C(=O)[C@@H]2CSSC[C@@H]3NC(=O)CNC(=O)[C@H](C)NC(=O)[C@H](CC(C)C)NC(=O)[C@@H]4CSSC[C@H](NC(=O)[C@H](Cc5ccc(O)cc5)NC(=O)CNC(=O)[C@H](CC(N)=O)NC(=O)CNC(=O)[C@H](CCCNC(=N)N)NC(=O)[C@H](CSSC[C@H](NC(=O)[C@@H](CCCNC(=N)N)C(=O)[C@H](CCC(N)=O)NC(=O)[C@H](CC(C)C)NC1=O)C(=O)N[C@@H](CCCNC(=N)N)C(=O)N[C@@H](CCCNC(=N)N)C(=O)N[C@@H](CC(=O)O)C(=O)N[C@@H](CO)C(=O)N[C@@H](CC(=O)O)C(=O)N4)NC(=O)[C@H](CC(C)C)NC3=O)C(=O)NCC(=O)N[C@@H](CO)C(=O)NCC(=O)N[C@@H](C(C)C)C(=O)N2 (cyclo(AGCLCRGNGYCGSGVCPRIL[X2]CRRDSDCL); disulfide 3-16, 5-22, 11-28)
Ki [1]: 28 nM | Ki [2]: 8.8 nM
